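Compound exposure: 48 hours, 5 concentrations, 96-well plates. GI50 is the concentration that inhibits growth by half. TGI: total growth inhibition.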
Key:
Assay in all cases: growth of human tumour cells (NCI), 48 h
M14 melanoma = tested on: M14 melanoma
HL-60(TB) leukemia = tested on: HL-60(TB) leukemia
MCF7 breast = tested on: MCF7 breast
786-0 renal = tested on: 786-0 renal
TK-10 renal = tested on: TK-10 renal
OVCAR-3 ovarian = tested on: OVCAR-3 ovarian
HCT-15 colon = tested on: HCT-15 colon
PC-3 prostate = tested on: PC-3 prostate
NCI-H23 lung = tested on: NCI-H23 lung
LOX IMVI melanoma = tested on: LOX IMVI melanoma
KM12 colon = tested on: KM12 colon
U251 CNS = tested on: U251 CNS
DU-145 prostate = tested on: DU-145 prostate
HCT-116 colon = tested on: HCT-116 colon
A498 renal = tested on: A498 renal
OVCAR-4 ovarian = tested on: OVCAR-4 ovarian
SW-620 colon = tested on: SW-620 colon
COLO 205 colon = tested on: COLO 205 colon
IGROV1 ovarian = tested on: IGROV1 ovarian
SF-295 CNS = tested on: SF-295 CNS
K-562 leukemia = tested on: K-562 leukemia
NCI/ADR-RES ovarian = tested on: NCI/ADR-RES ovarian
NCI-H522 lung = tested on: NCI-H522 lung
MOLT-4 leukemia = tested on: MOLT-4 leukemia
CAKI-1 renal = tested on: CAKI-1 renal
OVCAR-5 ovarian = tested on: OVCAR-5 ovarian
SR leukemia = tested on: SR leukemia
CCRF-CEM leukemia = tested on: CCRF-CEM leukemia
HT29 colon = tested on: HT29 colon
MDA-MB-231 breast = tested on: MDA-MB-231 breast
NCI-H460 lung = tested on: NCI-H460 lung
SK-MEL-28 melanoma = tested on: SK-MEL-28 melanoma
EKVX NSCLC = tested on: EKVX NSCLC
HOP-92 NSCLC = tested on: HOP-92 NSCLC
SK-OV-3 ovarian = tested on: SK-OV-3 ovarian
SF-539 CNS = tested on: SF-539 CNS
ACHN renal = tested on: ACHN renal
MDA-MB-435 = tested on: MDA-MB-435
UO-31 renal = tested on: UO-31 renal
T-47D breast = tested on: T-47D breast
SN12C renal = tested on: SN12C renal
SK-MEL-5 melanoma = tested on: SK-MEL-5 melanoma
MALME-3M melanoma = tested on: MALME-3M melanoma
SNB-19 CNS = tested on: SNB-19 CNS
HS 578T breast = tested on: HS 578T breast
UACC-257 melanoma = tested on: UACC-257 melanoma
A549 NSCLC = tested on: A549 NSCLC
HOP-62 NSCLC = tested on: HOP-62 NSCLC
OVCAR-8 ovarian = tested on: OVCAR-8 ovarian
BT-549 breast = tested on: BT-549 breast
UACC-62 melanoma = tested on: UACC-62 melanoma
SF-268 CNS = tested on: SF-268 CNS
NCI-H226 lung = tested on: NCI-H226 lung

Question: How did the GI50 (M14 melanoma) turn out when OCC#Cc1ccccc1C#CCCCCCC#Cc1ccccc1C#CCO was run?
Answer: The GI50 was 15.4 µM.

Question: What about the TGI (M14 melanoma) of the same molecule?
Answer: Its TGI is 29.2 µM.

Question: What about the GI50 (HL-60(TB) leukemia) of the same molecule?
Answer: The GI50 was 18.8 µM.

Question: And the TGI (HL-60(TB) leukemia)?
Answer: Its TGI is 41.8 µM.

Question: What about the GI50 (MCF7 breast) of the same molecule?
Answer: Its GI50 is 18.5 µM.

Question: What about the TGI (MCF7 breast) of the same molecule?
Answer: The TGI was 40.2 µM.

Question: And the GI50 (786-0 renal)?
Answer: Its GI50 is 16.8 µM.

Question: And the TGI (786-0 renal)?
Answer: The TGI was 32.3 µM.

Question: And the GI50 (TK-10 renal)?
Answer: The GI50 was 27.1 µM.

Question: What about the TGI (TK-10 renal) of the same molecule?
Answer: Its TGI is 76.8 µM.

Question: What about the GI50 (OVCAR-3 ovarian) of the same molecule?
Answer: The GI50 was 16 µM.

Question: What about the TGI (OVCAR-3 ovarian) of the same molecule?
Answer: Its TGI is 32.9 µM.

Question: What about the GI50 (HCT-15 colon) of the same molecule?
Answer: The GI50 was 15.9 µM.

Question: What about the TGI (HCT-15 colon) of the same molecule?
Answer: The TGI was 30.7 µM.

Question: And the GI50 (PC-3 prostate)?
Answer: Its GI50 is 18.1 µM.

Question: And the TGI (PC-3 prostate)?
Answer: The TGI was 38.8 µM.

Question: What about the GI50 (NCI-H23 lung) of the same molecule?
Answer: Its GI50 is 18.4 µM.

Question: And the TGI (NCI-H23 lung)?
Answer: The TGI was 33.6 µM.

Question: And the GI50 (LOX IMVI melanoma)?
Answer: The GI50 was 19.3 µM.

Question: And the TGI (LOX IMVI melanoma)?
Answer: The TGI was 34.8 µM.

Question: And the GI50 (KM12 colon)?
Answer: The GI50 was 18.8 µM.

Question: What about the TGI (KM12 colon) of the same molecule?
Answer: Its TGI is 49.4 µM.

Question: And the GI50 (U251 CNS)?
Answer: Its GI50 is 20.9 µM.

Question: And the TGI (U251 CNS)?
Answer: Its TGI is 36 µM.

Question: And the GI50 (DU-145 prostate)?
Answer: Its GI50 is 20.2 µM.

Question: And the TGI (DU-145 prostate)?
Answer: Its TGI is 41.7 µM.

Question: And the GI50 (HCT-116 colon)?
Answer: The GI50 was 12.7 µM.

Question: What about the TGI (HCT-116 colon) of the same molecule?
Answer: The TGI was 25.2 µM.

Question: And the GI50 (A498 renal)?
Answer: Its GI50 is 24.1 µM.

Question: And the TGI (A498 renal)?
Answer: The TGI was 44.8 µM.

Question: What about the GI50 (OVCAR-4 ovarian) of the same molecule?
Answer: The GI50 was 41 µM.

Question: What about the TGI (OVCAR-4 ovarian) of the same molecule?
Answer: Its TGI is greater than 100 µM.

Question: And the GI50 (SW-620 colon)?
Answer: Its GI50 is 21.9 µM.

Question: And the TGI (SW-620 colon)?
Answer: Its TGI is 43.3 µM.

Question: What about the GI50 (COLO 205 colon) of the same molecule?
Answer: Its GI50 is 22.8 µM.

Question: And the TGI (COLO 205 colon)?
Answer: Its TGI is 72.2 µM.

Question: And the GI50 (IGROV1 ovarian)?
Answer: The GI50 was 18.7 µM.

Question: And the TGI (IGROV1 ovarian)?
Answer: The TGI was 43.3 µM.

Question: And the GI50 (SF-295 CNS)?
Answer: Its GI50 is 16.9 µM.

Question: What about the TGI (SF-295 CNS) of the same molecule?
Answer: The TGI was 33.8 µM.

Question: And the GI50 (K-562 leukemia)?
Answer: Its GI50 is 22.4 µM.

Question: And the TGI (K-562 leukemia)?
Answer: The TGI was 57.7 µM.

Question: And the GI50 (NCI/ADR-RES ovarian)?
Answer: The GI50 was 18.8 µM.

Question: And the TGI (NCI/ADR-RES ovarian)?
Answer: The TGI was 36.7 µM.

Question: What about the GI50 (NCI-H522 lung) of the same molecule?
Answer: Its GI50 is 14.6 µM.

Question: And the TGI (NCI-H522 lung)?
Answer: The TGI was 29.6 µM.

Question: And the GI50 (MOLT-4 leukemia)?
Answer: The GI50 was 15.6 µM.

Question: And the TGI (MOLT-4 leukemia)?
Answer: Its TGI is 37.3 µM.

Question: And the GI50 (CAKI-1 renal)?
Answer: The GI50 was 19.3 µM.

Question: And the TGI (CAKI-1 renal)?
Answer: The TGI was 43.8 µM.

Question: What about the GI50 (OVCAR-5 ovarian) of the same molecule?
Answer: Its GI50 is 12.8 µM.

Question: And the TGI (OVCAR-5 ovarian)?
Answer: Its TGI is 28.6 µM.

Question: What about the GI50 (SR leukemia) of the same molecule?
Answer: Its GI50 is 18.1 µM.

Question: What about the TGI (SR leukemia) of the same molecule?
Answer: The TGI was 40.7 µM.

Question: And the GI50 (CCRF-CEM leukemia)?
Answer: Its GI50 is 22.9 µM.

Question: What about the TGI (CCRF-CEM leukemia) of the same molecule?
Answer: Its TGI is 49.6 µM.

Question: And the GI50 (HT29 colon)?
Answer: Its GI50 is 21.6 µM.

Question: And the TGI (HT29 colon)?
Answer: The TGI was greater than 100 µM.

Question: And the GI50 (MDA-MB-231 breast)?
Answer: Its GI50 is 17.2 µM.

Question: And the TGI (MDA-MB-231 breast)?
Answer: Its TGI is 32.6 µM.

Question: And the GI50 (NCI-H460 lung)?
Answer: The GI50 was 17.4 µM.

Question: What about the TGI (NCI-H460 lung) of the same molecule?
Answer: Its TGI is 34 µM.

Question: And the GI50 (SK-MEL-28 melanoma)?
Answer: The GI50 was 29 µM.

Question: What about the TGI (SK-MEL-28 melanoma) of the same molecule?
Answer: Its TGI is greater than 100 µM.

Question: And the GI50 (EKVX NSCLC)?
Answer: Its GI50 is 21.3 µM.

Question: What about the TGI (EKVX NSCLC) of the same molecule?
Answer: Its TGI is 42.4 µM.

Question: What about the GI50 (HOP-92 NSCLC) of the same molecule?
Answer: Its GI50 is 17.6 µM.

Question: What about the TGI (HOP-92 NSCLC) of the same molecule?
Answer: Its TGI is 33.3 µM.

Question: And the GI50 (SK-OV-3 ovarian)?
Answer: The GI50 was 31 µM.

Question: And the TGI (SK-OV-3 ovarian)?
Answer: Its TGI is greater than 100 µM.

Question: What about the GI50 (SF-539 CNS) of the same molecule?
Answer: The GI50 was 20 µM.

Question: And the TGI (SF-539 CNS)?
Answer: Its TGI is 36.3 µM.

Question: And the GI50 (ACHN renal)?
Answer: Its GI50 is 27.1 µM.

Question: What about the TGI (ACHN renal) of the same molecule?
Answer: Its TGI is 54 µM.

Question: What about the GI50 (MDA-MB-435) of the same molecule?
Answer: Its GI50 is 18.8 µM.

Question: And the TGI (MDA-MB-435)?
Answer: Its TGI is 36.1 µM.

Question: And the GI50 (UO-31 renal)?
Answer: Its GI50 is 17.1 µM.

Question: What about the TGI (UO-31 renal) of the same molecule?
Answer: The TGI was 33.8 µM.

Question: And the GI50 (T-47D breast)?
Answer: Its GI50 is 16.9 µM.

Question: What about the TGI (T-47D breast) of the same molecule?
Answer: Its TGI is 32.3 µM.

Question: And the GI50 (SN12C renal)?
Answer: Its GI50 is 19.2 µM.

Question: What about the TGI (SN12C renal) of the same molecule?
Answer: Its TGI is 33.6 µM.

Question: And the GI50 (SK-MEL-5 melanoma)?
Answer: Its GI50 is 18.9 µM.

Question: And the TGI (SK-MEL-5 melanoma)?
Answer: Its TGI is 33.1 µM.

Question: What about the GI50 (MALME-3M melanoma) of the same molecule?
Answer: The GI50 was 20.7 µM.

Question: And the TGI (MALME-3M melanoma)?
Answer: Its TGI is 52.6 µM.

Question: And the GI50 (SNB-19 CNS)?
Answer: Its GI50 is 34.8 µM.

Question: And the TGI (SNB-19 CNS)?
Answer: The TGI was greater than 100 µM.

Question: And the GI50 (HS 578T breast)?
Answer: Its GI50 is 21.7 µM.

Question: What about the TGI (HS 578T breast) of the same molecule?
Answer: The TGI was 43.7 µM.

Question: What about the GI50 (UACC-257 melanoma) of the same molecule?
Answer: The GI50 was 15.7 µM.

Question: And the TGI (UACC-257 melanoma)?
Answer: Its TGI is 31.4 µM.

Question: What about the GI50 (A549 NSCLC) of the same molecule?
Answer: Its GI50 is 19.2 µM.

Question: And the TGI (A549 NSCLC)?
Answer: Its TGI is 45.3 µM.

Question: And the GI50 (HOP-62 NSCLC)?
Answer: Its GI50 is 16.2 µM.

Question: And the TGI (HOP-62 NSCLC)?
Answer: Its TGI is 31.4 µM.

Question: What about the GI50 (OVCAR-8 ovarian) of the same molecule?
Answer: The GI50 was 17.1 µM.

Question: And the TGI (OVCAR-8 ovarian)?
Answer: Its TGI is 42.1 µM.

Question: And the GI50 (BT-549 breast)?
Answer: Its GI50 is 19.8 µM.

Question: And the TGI (BT-549 breast)?
Answer: Its TGI is 39.8 µM.

Question: What about the GI50 (UACC-62 melanoma) of the same molecule?
Answer: Its GI50 is 17.9 µM.

Question: And the TGI (UACC-62 melanoma)?
Answer: Its TGI is 32.3 µM.

Question: What about the GI50 (SF-268 CNS) of the same molecule?
Answer: Its GI50 is 18.8 µM.

Question: What about the TGI (SF-268 CNS) of the same molecule?
Answer: The TGI was 38.7 µM.

Question: And the GI50 (NCI-H226 lung)?
Answer: The GI50 was 21.8 µM.

Question: What about the TGI (NCI-H226 lung) of the same molecule?
Answer: The TGI was 38.9 µM.

Source: PubChem BioAssay (NCI)
